Test results taken from patent US9963433B2, “Anticancer drugs including the chemical structures of an androgen receptor ligand and a histone deacetylase inhibitor” (Wayne State University, priority 2016, dated 2018).

Assays:
[1] = test system: TMPRSS2 mRNA (AR target gene) in C4-2 cells; assay: Inhibition of R1881 activation of TMPRSS2 mRNA in C4-2 cells; format: cell-based; conditions: hormone depleted 96 h, R1881 1 nM, compound 1-10 μM, 48 h, FIG. 3B
Experimental: (§1) Cell Culture and Reagents. LNCaP and 22Rv1 cell lines were from American Type Culture Collection (Manassas, Va.). C4-2 cells were kindly provided by Dr. Edwin Sanchez (University of Toledo). […] R1881 was kindly provided by Dr. Stephan Patrick (Karmanos Cancer Institute). All experiments were conducted using phenol-red free growth media.
(§2) RNA isolation, Reverse Transcription, and Real Time PCR. Total RNA was isolated from cells using the RNeasy Mini Kit (Qiagen). Reverse transcription PCR was then performed using 500 ng of total RNA with random primers and using the high-capacity complementary DNA Archive kit (Applied Biosystems). The complementary DNA from this reaction was measured using quantitative real time PCR using the StepONE Plus Real Time PCR system (Life Technologies Corporation, Carlsbad, Calif.). All reactions were performed in triplicate and normalized to glyceraldehyde-3-phosphate-dehydrogenase values in the same samples.

[2] = test system: HDACs from Hela cell nuclear extract; format: biochemical; conditions: HeLa cell nuclear extract; tested at 10 μM and 25 μM; FIG. 2B
Experimental: (§3) FIGS. 2A-2F show measurement of intrinsic and in situ HDACi activities. […] IC50 values were calculated from nonlinear regression plots using GraphPad Prism5 software. […] Recombinant HDAC6 was incubated with each drug at the indicated concentrations. IC50 values were calculated from nonlinear regression plots using GraphPad Prism5 software.
(§4) HDAC activity assay. In vitro HDAC inhibition was measured by using the HDAC fluorimetric assay/drug discovery Kit (Enzo Life Sciences, BML-AK500) and the HDAC6 fluorometric drug discovery kit (Enzo Life Sciences, BML-AK516) following the manufacturer's protocols and instructions. IC50 values were calculated from nonlinear […] plots using GraphPad Prism5 software.
(§5) HDAC1 and HDAC2 are enriched in nuclear extracts whereas HDAC6 is a cytosolic enzyme that is the principal modulator of the acetylation status of Hsp90. […] Again, TSA served as the positive control in FIG. 2D.

[3] = target: T1, human recombinant HDAC6 (Homo sapiens, UniProt Q9UBN7); assay: HDAC6 fluorometric assay, recombinant enzyme; format: biochemical; conditions: tested at 10 μM and 25 μM; FIG. 2D
T1 construct: purchased Enzo Life Sciences BML-AK516
T1 sequence (Q9UBN7 1-1215): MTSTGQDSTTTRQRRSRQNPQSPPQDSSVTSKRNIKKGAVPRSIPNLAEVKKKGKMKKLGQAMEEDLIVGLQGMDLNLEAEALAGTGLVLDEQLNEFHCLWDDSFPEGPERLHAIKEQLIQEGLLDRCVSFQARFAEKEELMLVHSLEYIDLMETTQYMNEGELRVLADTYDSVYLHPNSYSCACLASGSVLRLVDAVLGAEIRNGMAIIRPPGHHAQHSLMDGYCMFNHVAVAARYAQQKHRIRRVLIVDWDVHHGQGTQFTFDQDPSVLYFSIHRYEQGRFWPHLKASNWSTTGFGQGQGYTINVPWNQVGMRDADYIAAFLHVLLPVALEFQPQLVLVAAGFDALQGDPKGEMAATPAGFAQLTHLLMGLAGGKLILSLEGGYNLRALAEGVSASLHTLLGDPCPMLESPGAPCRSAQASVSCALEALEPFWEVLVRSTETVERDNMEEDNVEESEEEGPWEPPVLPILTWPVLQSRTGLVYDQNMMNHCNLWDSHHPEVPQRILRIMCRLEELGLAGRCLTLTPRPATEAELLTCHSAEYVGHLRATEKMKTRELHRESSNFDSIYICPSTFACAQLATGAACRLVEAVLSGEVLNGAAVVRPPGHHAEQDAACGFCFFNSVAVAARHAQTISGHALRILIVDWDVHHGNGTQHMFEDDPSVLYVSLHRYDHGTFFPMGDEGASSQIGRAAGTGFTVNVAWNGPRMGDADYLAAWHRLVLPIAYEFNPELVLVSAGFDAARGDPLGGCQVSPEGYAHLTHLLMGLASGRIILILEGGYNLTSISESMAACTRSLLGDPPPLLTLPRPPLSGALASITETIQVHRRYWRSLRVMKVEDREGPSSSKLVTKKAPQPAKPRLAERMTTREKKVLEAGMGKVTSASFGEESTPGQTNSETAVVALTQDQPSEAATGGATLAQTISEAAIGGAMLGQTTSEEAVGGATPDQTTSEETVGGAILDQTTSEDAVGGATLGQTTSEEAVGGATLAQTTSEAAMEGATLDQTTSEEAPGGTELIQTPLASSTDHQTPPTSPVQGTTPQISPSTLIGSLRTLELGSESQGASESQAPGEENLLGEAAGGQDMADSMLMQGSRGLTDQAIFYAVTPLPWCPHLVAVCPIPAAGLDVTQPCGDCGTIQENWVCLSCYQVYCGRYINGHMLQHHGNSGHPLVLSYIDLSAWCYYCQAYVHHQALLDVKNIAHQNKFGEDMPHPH
Experimental: as §3, §4, §5

[4] = test system: KLK3 mRNA (AR target gene) in C4-2 cells; assay: Inhibition of R1881 activation of KLK3 mRNA in C4-2 cells; format: cell-based; conditions: hormone depleted 96 h, R1881 1 nM, compound 1-10 μM, 48 h, FIG. 3A
Experimental: as §1, §2

[5] = test system: 55 KDa polypeptide (putative Hsp90 fragment); assay: Western blot of acetylated lysine in C4-2 cells; conditions: 24 h, acetylated lysine antibody, FIG. 4C
Experimental: (§8) Cells were then harvested for western blot analysis using antibody to AR (4A), HSP90 (4B), Acetyl-Lysine (4C) or GAPDH (loading control). ImageJ software was used to determine the intensities of the bands relative to the vehicle control for each protein. The values were then divided by the values for GAPDH within the same samples.
(§9) Western Blot Analysis. Cells were washed once with phosphate buffered saline (PBS) and then lysed with RIPA buffer (150 mM NaCl, 1% Nonidet P-40, 0.5% sodium deoxycholate, 0.1% SDS, 50 mM Tris of pH 8.0) containing a protease inhibitor cocktail (Pierce, Thermo Fisher Scientific). The cell lysates were then incubated on ice for 40 minutes. Total protein concentrations were estimated using the Bradford Assay (Bio-Rad). Protein samples (10-40 ug) were heated at 95° C. for 5 minutes and resolved by electrophoresis on 8% polyacrylamide-SDS gels and electrophoretically transferred to PVDF membranes (Millipore, Billerica, Mass.). The membranes were then probed overnight at 4° C. with the appropriate primary antibody followed by the appropriate horseradish peroxidase-conjugated secondary antibody.

[6] = test system: AR chromatin association at KLK3 ARE enhancer elements; assay: ChIP of AR at KLK3 enhancer in C4-2 cells; conditions: compound 10 μM, R1881 1 nM or 10 nM, 2 h, FIG. 3C
Experimental: (3C) C4-2 cells plated in hormone-depleted medium were treated with either vehicle, R1881, or the indicated compound for 2 h. Cells were harvested and subjected to ChIP using AR antibody. Taqman probes targeting ARE enhancer elements associated with the KLK3 gene were used to quantify the immunoprecipitated chromatin.
Chromatin Immunoprecipitation (ChIP). […] The ChIP signals were measured by quantitative real time PCR analysis of the immunoprecipitated products.
As a target site for the ChIP assay, the well-established AR binding enhancer elements located 4 kb upstream of the transcription initiation site of the KLK3 gene was chosen.

[7] = test system: p21 mRNA in LNCaP cells; assay: p21 mRNA induction in LNCaP cells; conditions: 10 μM, 48 h, FIG. 5A
[8] = test system: Hsp90; assay: Western blot of Hsp90 protein in C4-2 cells; conditions: 1 μM to 10 μM, 24 h, relative to GAPDH, FIG. 4B
Experimental: as §8, §9

[9] = test system: C4-2 cells; assay: MTT cell viability assay, C4-2 cells; format: cell-based; conditions: C4-2 cells; 5 μM; MTT Day 3 relative to Day 0; FIG. 6C
Experimental: (6A) C4-2 cells were seeded in 96-well plates and 24 h later, they were treated with the indicated compounds (0.1 μM-10 μM) or with vehicle (DMSO). Cell viability was measured by the MTT assay on Days 0 and 3 of treatment. EC50 values were calculated from nonlinear regression plots using GraphPad Prism5 software. […] Cell viability was measured by the MTT assay on Days 0 and 3 of treatment. […] Cell viability was measured by the MTT assay on Days 0 and 3 of treatment. […] (6D) 22Rv1 cells were infected with AR shRNA lentivirus, or control shRNA. 72 h after infection, cells were plated and viable cells were measured by the MTT assay on the indicated days (6D, bottom). Cells were also harvested for western blot analysis and probed with antibody to AR, which was also reactive with the AR splice variant AR-V7 (6D, top). (6E) 22Rv1 cells were seeded in 96-well plates and 24 h later, they were treated with the indicated compounds (0.1 μM-10 μM) or with vehicle (DMSO). Cell viability was measured by the MTT assay on Days 0 and 3 of treatment. EC50 values were calculated from nonlinear regression plots using GraphPad Prism5 software.
Cell Proliferation Assay. Cells were trypsinized and 6000 cells/well were seeded in 96-well plates coated with poly-D-lysine. The cells were seeded in phenol red-free medium supplemented with 10% FBS, 100 units/ml penicillin, 100 μg/ml streptomycin, 2 mM L-glutamine mixture and sodium pyruvate (1 mM) for C4-2 cells and phenol red-free medium supplemented with 10% FBS, 100 units/ml penicillin, 100 μg/ml streptomycin and 2 mM L-glutamine mixture for 22Rv1 cells. The cells were grown at 37° C. in 5% CO2. Twenty four hours after seeding in the 96-well plates, the cells were treated with indicated compound or DMSO (vehicle). The culture medium was not changed during the time course of the assay. On Day zero and on Day 3, cell viability was determined using the MTT assay. MTT (10 μL, 5 mg/mL) was added to each well and incubated for 2 h at 37° C. The formazan crystal sediments were dissolved in 100 μL of DMSO, and the absorbance at 570 nm was measured using the BioTek Synergy 2 Microplate Reader (BioTek, Winooski, Vt.). […] IC50 values were calculated from nonlinear […] plots using GraphPad Prism5 software.

[10] = test system: p21 mRNA in C4-2 cells; assay: p21 mRNA induction in C4-2 cells; conditions: 48 h, FIG. 5B
[11] = test system: DLC1 mRNA in C4-2 cells; assay: In situ HDACi activity: DLC1 mRNA in C4-2 cells; format: cell-based; conditions: 48 h, normalized to GAPDH mRNA, FIG. 2F
Experimental: (§6) FIGS. 2A-2F show measurement of intrinsic and in situ HDACi activities. […]. IC50 values were calculated from nonlinear regression plots using GraphPad Prism5 software. (2B) Enz, 1002 and 3-52 were tested against HeLa cell nuclear extract at 10 μM and 25 μM and TSA (1 μM) was used as positive control. […] Recombinant HDAC6 was incubated with each drug at the indicated concentrations. IC50 values were calculated from nonlinear regression plots using GraphPad Prism5 software. (2D) Enz, 1002 and 3-52 were tested against recombinant HDAC6 at 10 μM and 25 μM and TSA (1 μM) was used as positive control. […]
(§7) Cell Culture and Reagents. LNCaP and 22Rv1 cell lines were from American Type Culture Collection (Manassas, Va.). C4-2 cells were kindly provided by Dr. Edwin Sanchez (University of Toledo). LNCaP and C4-2 cells were routinely grown at 37° C. in 5% CO2 in RPMI 1640 medium supplemented with 10% FBS (Invitrogen); 100 units/ml penicillin, 100 μg/ml streptomycin, 2 mM L-glutamine mixture (Invitrogen); and sodium pyruvate (1 mM) (Invitrogen). 22Rv1 cells were grown in RPMI 1640 medium supplemented with 10% FBS (Invitrogen); 100 units/ml penicillin, 100 μg/ml streptomycin, 2 mM L-glutamine mixture (Invitrogen). Affinity-purified rabbit anti-human antibody to AR (sc-816) and mouse anti-human antibody to GAPDH (sc-47724) were purchased from Santa Cruz Biotechnology (Santa Cruz, Calif.). Affinity-purified rabbit anti-human antibody to Hsp90 (C45G5) #4877 and rabbit anti-human antibody to acetylated lysine #9441 were purchased from Cell Signaling Technology. R1881 was kindly provided by Dr. Stephan Patrick (Karmanos Cancer Institute). All experiments were conducted using phenol-red free growth media. For hormone depletion, cells were grown in phenol-red free RPMI 1640 medium supplemented with 10% charcoal stripped FBS (Sigma-Aldrich) which was heat inactivated at 56° C. for thirty minutes, and a mixture of 100 units/ml penicillin, 100 μg/ml streptomycin and 2 mM L-glutamine for 96 h.
as §2, with “samples. All primers and Taqman probes were purchased from the applied Biosystems inventory (Invitrogen) (Patki et al., 2015).” for “samples.”
. […]

[12] = test system: DLC1 mRNA in LNCaP cells; assay: In situ HDACi activity: DLC1 mRNA in LNCaP cells; format: cell-based; conditions: 10 μM, 48 h, normalized to GAPDH mRNA, FIG. 2E
Experimental: as §6, §7
as §2, with “samples. All primers and Taqman probes were purchased from the applied Biosystems inventory (Invitrogen) (Patki et al., 2015).” for “samples.”
. […]

Row | Compound | inhibition of activation of TMPRSS2 by R1881 [1] | inhibition of nuclear HDAC activity [2] | inhibitory activity against HDAC6 [3] | inhibition of activation of KLK3 by R1881 [4] | hyper-acetylation of a 55 KDa polypeptide [5] | chromatin association of AR (ChIP signal) [6] | p21 mRNA expression [7] | Hsp90 protein level (degradation) [8] | cell death (viable cells below the number on Day 0) [9] | p21 mRNA expression [10] | DLC1 mRNA expression [11] | DLC1 mRNA expression [12]
1 | COC(=O)CCCCCCNC(=O)c1ccc(N2C(=S)N(c3ccc(C#N)c(C(F)(F)F)c3)C(=O)C2(C)C)cc1F [Compound 3-52, Methyl-7-(4-(3-(4-cyano-3-(trifluoromethyl)phenyl)-5,5-dimethyl-4-oxo-2-thioxoimidazolidin-1-yl)-2-fluorobenzamido)heptanoate] | comparable to Enz | did not inhibit nuclear HDAC activity even up to a concentration of 25 μM | did not show significant inhibitory activity | comparable to Enz | – | – | – | – | – | – | – | –
2 | O=C(CCCCCCC(=O)Nc1ccccc1)NO [SAHA, suberanilohydroxamic acid, reference compound] | – | – | – | – | hyper-acetylation of a 55 KDa polypeptide | basal ChIP signal | induced p21 mRNA | a decrease in Hsp90 was evident at the higher doses | caused cell death | induced p21 mRNA | strongly up-regulated | strongly up-regulated
3 | C[C@]1(O)CC[C@H]2[C@@H]3CCC4=CC(=O)CCC4=C3C=C[C@@]21C [androgen, R1881] | – | – | – | – | – | strongly stimulated chromatin association of AR | – | – | – | – | – | –
